Measurements taken from the supplement of paper PMC10307832.

Columns and labels:
Assay in all cases: relative viability (nuclei count vs DMSO), 5 days (fraction); higher = more cells survive
[1] = compound: COC1=CC=C(C=C1)CN2C=CC3=C2C=C(C=C3)C(=O)NO + COc1cccc2cc(-c3nc([C@H]4CC[C@H](C(=O)O)CC4)n4ncnc(N)c34)[nH]c12 [OSI-027] (partner 0.5 µM)
Outline: (§1)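 Each reported value is a median over duplicate plates. It expresses relative viability: treated-well nuclei count divided by vehicle-well nuclei count. Lung cancer cell lines in 1536-well plates were dosed by pin tool a day after seeding, alone with one drug or with a fixed anchor-drug dose plus five library-drug doses (not always all listed) in √10 steps, and nuclei were counted after 5 days.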

[2] = compound: COC1=CC=C(C=C1)CN2C=CC3=C2C=C(C=C3)C(=O)NO + CS(=O)(=O)N1CCN(Cc2cc3nc(-c4cccc5[nH]ncc45)nc(N4CCOCC4)c3s2)CC1 [Pictilisib] (partner 1 µM)
Outline: as §1

[3] = compound: COC1=CC=C(C=C1)CN2C=CC3=C2C=C(C=C3)C(=O)NO + C[C@]1(O)C[C@@H](c2nc(-c3ccc4ccc(-c5ccccc5)nc4c3)c3c(N)nccn32)C1 [Linsitinib] (partner 1 µM)
Outline: as §1

[4] = compound: COC1=CC=C(C=C1)CN2C=CC3=C2C=C(C=C3)C(=O)NO + Cc1cc(Nc2cc(N3CCN(C)CC3)nc(Sc3ccc(NC(=O)C4CC4)cc3)n2)n[nH]1 [Tozasertib] (partner 0.1 µM)
Outline: as §1

Row | Cell Line | relative viability ([1]; first compound 0.08 µM) | relative viability ([1]; first compound 0.253 µM) | relative viability ([1]; first compound 0.8 µM) | relative viability ([1]; first compound 2.53 µM) | relative viability ([1]; first compound 8 µM) | relative viability ([2]; first compound 0.08 µM) | relative viability ([2]; first compound 0.253 µM) | relative viability ([2]; first compound 0.8 µM) | relative viability ([2]; first compound 2.53 µM) | relative viability ([2]; first compound 8 µM) | relative viability ([3]; first compound 0.08 µM) | relative viability ([3]; first compound 0.253 µM) | relative viability ([3]; first compound 0.8 µM) | relative viability ([3]; first compound 2.53 µM) | relative viability ([3]; first compound 8 µM) | relative viability ([4]; first compound 0.08 µM) | relative viability ([4]; first compound 0.253 µM) | relative viability ([4]; first compound 0.8 µM) | relative viability ([4]; first compound 2.53 µM) | relative viability ([4]; first compound 8 µM)
1 | NCI-H2126 | 0.685 | 0.775 | 0.696 | 0.797 | 0.743 | 0.479 | 0.496 | 0.53 | 0.558 | 0.443 | 0.735 | 0.754 | 0.686 | 0.737 | 0.727 | 0.736 | 0.801 | 0.856 | 0.856 | 0.754
2 | NCI-H2228 | – | 0.536 | 0.594 | 0.729 | 0.473 | 0.375 | 0.326 | 0.536 | 0.46 | 0.251 | 0.77 | 0.733 | 0.971 | 0.578 | 0.58 | – | 0.229 | 0.291 | 0.228 | 0.185
3 | NCI-H2347 | 0.479 | 0.433 | 0.473 | 0.481 | 0.402 | 0.494 | 0.652 | 0.596 | – | 0.462 | 0.697 | 0.918 | 1.03 | 0.982 | 0.877 | 0.463 | 0.415 | 0.613 | 0.611 | 0.503
4 | NCI-H2405 | 0.633 | 0.65 | 0.638 | 0.664 | 0.606 | 0.316 | 0.378 | 0.532 | 0.405 | 0.331 | 0.66 | 0.932 | 0.915 | 0.915 | 0.794 | 0.523 | 0.807 | 0.716 | 0.689 | 0.656
5 | NCI-H3122 | – | 1.01 | 0.945 | 0.93 | 0.908 | 0.571 | 0.629 | 0.652 | 0.577 | 0.518 | 0.975 | 1.04 | 1.03 | 1 | 0.997 | – | 0.327 | 0.397 | 0.352 | 0.382
6 | PC-3 [JPC-3] | 0.766 | 0.781 | 0.726 | 0.813 | 0.761 | 0.781 | 0.713 | 0.747 | 0.805 | 0.718 | 0.963 | 0.962 | 0.97 | 1 | 1.06 | 0.861 | 0.912 | 0.921 | 0.88 | 0.908
7 | PC-14 | 0.89 | 0.87 | 0.739 | 0.857 | 0.658 | 0.388 | 0.629 | 0.766 | 0.688 | 0.699 | 0.894 | 0.959 | 0.936 | 1.04 | 0.944 | 0.302 | 0.548 | 0.561 | 0.638 | 0.486
8 | RERF-LC-KJ | 0.589 | 0.594 | 0.662 | 0.617 | 0.495 | 0.468 | 0.571 | 0.511 | 0.608 | 0.472 | 0.763 | 0.883 | 0.867 | 0.901 | 0.945 | 0.427 | 0.494 | 0.499 | 0.49 | 0.388
9 | SK-LU-1 | 0.358 | 0.316 | 0.34 | 0.284 | 0.352 | 0.468 | 0.586 | 0.613 | 0.517 | 0.505 | 0.998 | 1.3 | 1.08 | 1.29 | 0.888 | 0.279 | 0.339 | 0.325 | 0.337 | 0.3
10 | SK-MES-1 | 0.639 | 0.626 | 0.62 | 0.638 | 0.583 | 0.343 | 0.384 | 0.368 | 0.36 | 0.332 | 1.03 | 1.05 | 1.12 | 1.14 | 1.01 | 0.816 | 0.895 | 0.868 | 0.874 | 0.81
11 | UMC-11 | – | 0.469 | 0.554 | 0.463 | 0.477 | 0.28 | 0.82 | 0.864 | 0.756 | 0.748 | 0.891 | 0.974 | 1.06 | 0.959 | 0.938 | – | 0.204 | 0.215 | 0.215 | 0.223
